In series [1] the test system is Influenza A virus. Description: Anti-influenza activity against Influenza A virus A/WSN/33(H1N1) infected in HEK293T cells assessed as reduction in virus-induced cytopathic effect incubated for 48 hrs by CCK-8 assay. The format is functional, organism-based. The note with it: HEK-293T.
Series [2] is described as follows: Cytotoxicity against human HEK293T cells assessed as reduction in cell viability incubated for 48 hrs by CCK-8 assay. The series is classed as toxicity, cell-based, HEK-293T. Background: Formazan colour is commonly taken as a measure of viable cells.
The nature of series [3]: Selectivity index, ratio of CC50 for cytotoxicity against human HEK293T cells to EC50 for anti-influenza activity against Influenza A virus A/WSN/33(H1N1) infected in HEK293T cells assessed as reduction in virus-induced cytopathic effect. The series is classed as toxicity, cell-based. The conditions noted are these: read-out: Ratio CC50/EC50. (Cytopathic effects are the visible damage that an infection or toxin causes in cultured cells.)

Series [4] relates to Influenza B virus. In words: Anti-influenza activity against Influenza B virus Yamagata/16/88 infected in HEK293T cells assessed as reduction in virus-induced cytopathic effect incubated for 48 hrs by CCK-8 assay. The format is functional, organism-based. The note with it: Yamagata/16/88, HEK-293T.
Series [5] relates to Influenza B virus. In words: Anti-influenza activity against Influenza B virus Victoria/2/87 infected in HEK293T cells assessed as reduction in virus-induced cytopathic effect incubated for 48 hrs by CCK-8 assay. The series is classed as functional, organism-based. The note with it: Victoria/2/87, HEK-293T.
The subject of series [6] is Influenza A virus. In words: Anti-influenza activity against Influenza A virus H3N2 infected in HEK293T cells assessed as reduction in virus-induced cytopathic effect incubated for 48 hrs by CCK-8 assay. The format is functional, organism-based. The note with it: H3N2, HEK-293T.
Series [7] is described as follows: Half life in mouse liver microsomes preincubated for 5 mins followed by NADPH addition and measured for 45 mins by LC-MS analysis. The series is classed as ADME, Microsome. The note with it: time 50 min.
Series [8] in a line: Half life in dog liver microsomes preincubated for 5 mins followed by NADPH addition and measured for 45 mins by LC-MS analysis. The format is ADME, Canis lupus familiaris, Microsome. The note with it: time 50 min. On the technique in general: Liver microsomes are a subcellular fraction often used to study metabolism.
Series [9] can be described thus: Half life in human liver microsomes preincubated for 5 mins followed by NADPH addition and measured for 45 mins by LC-MS analysis. The series is classed as ADME, Microsome. The conditions noted are these: time 50 min.
Series [10] is described as follows: Intrinsic clearance in mouse liver microsomes preincubated for 5 mins followed by NADPH addition and measured for 45 mins by LC-MS analysis. The format is ADME, Microsome. The conditions noted are these: time 50 min, read-out: CLH.
A short description of series [11]: Intrinsic clearance in dog liver microsomes preincubated for 5 mins followed by NADPH addition and measured for 45 mins by LC-MS analysis. The series is classed as ADME, Canis lupus familiaris, Microsome. The conditions noted are these: time 50 min, read-out: CLH.
Series [12] can be described thus: Intrinsic clearance in human liver microsomes preincubated for 5 mins followed by NADPH addition and measured for 45 mins by LC-MS analysis. The format is ADME, Microsome. The note with it: time 50 min, read-out: CLH.
Series [13] can be described thus: Hepatic clearance in mouse liver microsomes preincubated for 5 mins followed by NADPH addition and measured for 45 mins by LC-MS analysis. The conditions noted are these: time 50 min. The series is classed as ADME, Microsome.
Series [14] in a line: Hepatic clearance in dog liver microsomes preincubated for 5 mins followed by NADPH addition and measured for 45 mins by LC-MS analysis. The series is classed as ADME, Canis lupus familiaris, Microsome. The conditions noted are these: time 50 min.
Series [15] can be described thus: Hepatic clearance in human liver microsomes preincubated for 5 mins followed by NADPH addition and measured for 45 mins by LC-MS analysis. The format is ADME, Microsome. The conditions noted are these: time 50 min.
Series [16] in a line: Hepatic extraction ratio in mouse liver microsomes preincubated for 5 mins followed by NADPH addition and measured for 45 mins by LC-MS analysis. The format is ADME, Microsome. The conditions noted are these: time 50 min, read-out: ERH.
Series [17] can be described thus: Hepatic extraction ratio in dog liver microsomes preincubated for 5 mins followed by NADPH addition and measured for 45 mins by LC-MS analysis. The conditions noted are these: time 50 min, read-out: ERH. The series is classed as ADME, Canis lupus familiaris, Microsome.
Series [18] in a line: Hepatic extraction ratio in human liver microsomes preincubated for 5 mins followed by NADPH addition and measured for 45 mins by LC-MS analysis. The series is classed as ADME, Microsome. The note with it: time 50 min, read-out: ERH.
Series [19] can be described thus: Stability in human plasma assessed as compound remaining by LC-MS/MS analysis. The series is classed as ADME, cell-free.
The nature of series [20]: Stability in human plasma assessed as compound remaining measured after 5 mins by LC-MS/MS analysis. The series is classed as ADME, cell-free. The conditions noted are these: read-out: Stability.
Series [21] is described as follows: Stability in human plasma assessed as compound remaining measured after 15 mins by LC-MS/MS analysis. The format is ADME, cell-free. The conditions noted are these: read-out: Stability.
Series [22] can be described thus: Stability in human plasma assessed as compound remaining measured after 30 mins by LC-MS/MS analysis. The series is classed as ADME, cell-free. The conditions noted are these: read-out: Stability.
A short description of series [23]: Stability in human plasma assessed as compound remaining measured after 60 mins by LC-MS/MS analysis. The note with it: read-out: Stability. The format is ADME, cell-free.
Series [24] is described as follows: Stability in human plasma assessed as compound remaining measured after 120 mins by LC-MS/MS analysis. The conditions noted are these: read-out: Stability. The format is ADME, cell-free.
Series [25] addresses von Hippel-Lindau disease tumor suppressor/Polymerase acidic protein (Influenza A virus (A/Puerto Rico/8/1934(H1N1))) (UniProt P03433+P40337). In words: PROTAC activity at Influenza A virus A/WSN/33(H1N1) flag tagged Polymerase acidic protein/VHL (unknown origin) expressed in HEK293T cells assessed as degradation of PA expression at 0.02 to 10 uM incubated for 24 hrs by Western blotting analysis. The series is classed as cell-based. The conditions noted are these: dose 0.02-10 µM.

Series [26] in a line: Binding affinity to Influenza A virus A/WSN/33(H1N1) flag tagged Polymerase acidic protein assessed as dissociation constant incubated for 48 hrs by microscale thermophoresis assay. The note with it: hek293t.
Series [27] concerns Influenza A virus. Description: Anti-influenza activity against Influenza A virus A/WSN/33(H1N1) infected in MDCK cells assessed as downregulation of nucleoprotein expression at 1.56 to 100 nM incubated for 24 hrs by Western blotting analysis. The series is classed as functional, organism-based. The conditions noted are these: dose 1.56-100 nM.
A short description of series [28]: Cytotoxicity against dog MDCK cells assessed as reduction in cell viability incubated for 48 hrs by CCK-8 assay. The format is toxicity, cell-based, Canis lupus familiaris.
Series [29] deals with Influenza A virus. Description: Anti-influenza activity against Influenza A virus A/PR/8/34 (H1N1) infected in MDCK cells assessed as inhibition of viral growth at 1.6 nM incubated for 48 hrs by luciferase assay relative to control. The format is functional.
For series [30], the system named is Influenza A virus. Description: Anti-influenza activity against Influenza A virus A/PR/8/34 (H1N1) infected in MDCK cells assessed as reduction in virus-induced cytopathic effect incubated for 48 hrs by CCK-8 assay. The format is functional, organism-based.
For series [31], the system named is Influenza A virus. In words: Anti-influenza activity against Influenza A virus A/PR/8/34 (H1N1) infected in MDCK cells assessed as inhibition of viral growth at 100 uM incubated for 48 hrs by luciferase assay relative to control. The format is functional.
Series [32] deals with Influenza A virus. Description: Anti-influenza activity against Influenza A virus A/PR/8/34 (H1N1) infected in MDCK cells assessed as inhibition of viral growth at 0.8 nM incubated for 48 hrs by luciferase assay relative to control. The series is classed as functional.
Series [33] relates to Influenza A virus. Description: Anti-influenza activity against Influenza A virus A/PR/8/34 (H1N1) infected in MDCK cells assessed as inhibition of viral growth incubated for 48 hrs by luciferase assay. The format is functional, organism-based.

Active and inactive are the calls of the source. The rule behind the calls is not given here.

The term EC50 denotes the midpoint of the concentration-response curve. A word on the CC50: it is the concentration giving 50% cytotoxicity. For orientation: half-life means the time in which the quantity being followed falls by half. High values mean slow loss, low ones fast loss. In general, Kd refers to the concentration at which binding is half-saturated. What is called inhibition is the change of the read-out against control, counted positive when it falls. The term IC50 denotes the concentration at which inhibition is half-maximal.

Take `CC(C)(C)c1ccc(C(=O)NC(=S)Nc2ccc(N)cc2)cc1`: the EC50 in the series on Influenza A virus [1] was 332 nM; in the series with Influenza B virus [4], 151 nM; with Influenza B virus [5], 167 nM; in the series on Influenza A virus [6], greater than 10000 nM; in the series on Influenza A virus [30], 24 nM. In addition, the values for the CC50 at 48 h in series [2] and in series [28] were 72300 nM and greater than 200000 nM, respectively. Besides, the selectivity ratio in [3] was 218. The half-life worked out at 21.9 min in series [7], 26.1 min in series [8] and 138 min in series [9]. The CLint scaled is 249 mL/min/kg in series [10], 76.5 mL/min/kg in series [11] and 11.6 mL/min/kg in [12]. Besides, the CLhep predicted in series [13] is 66.1 mL/min/kg; in [14], 22 mL/min/kg; in series [15] it was 7.43 mL/min/kg. The results for the hepatic extraction ratio at 0.75 h in series [16], in [17] and in [18] were 0.735, 0.712 and 0.359, respectively. In addition, in series [19], the Stability was determined as 100%. Moreover, the remaining at 5 min in series [20] worked out at 101%. Besides, the remaining at 0.25 h in [21] worked out at 102%. Further, the remaining at 0.5 h in series [22] came out at 104%. Also, the remaining at 1 h in [23] stood at 113%. For the same compound, the remaining at 2 h in series [24] was found to be 112%. In addition, in [25], the outcome was inactive. Also, the dissociation constant Kd in series [26] turned out to be 487000 nM. Moreover, the result in the series with Influenza A virus [27] was Active. Also, in the series with Influenza A virus [29], the inhibition at 0.0016 µM amounted to 18%.

Regarding `NC12CC3CC(CC(C3)C1)C2` [AMANTADINE], the EC50 with Influenza A virus [1] stood at 1790 nM. Also, in series [2], the CC50 at 48 h was greater than 100000 nM. In series [3], the selectivity ratio was greater than 55.9. Also, the inhibition at 100 µM in the series with Influenza A virus [31] stood at 62.3%.

Turning to `O=C1c2c(O)c(=O)ccn2N([C@@H]2c3ccccc3SCc3c2ccc(F)c3F)[C@@H]2COCCN12` [BALOXAVIR], the EC50 in the series on Influenza A virus [1] turned out to be 4 nM; with Influenza B virus [4], 71 nM; with Influenza B virus [5], 6 nM; in the series on Influenza A virus [6] it was 5 nM. Besides, the figures for the CC50 at 48 h in series [2] and in series [28] were 63100 nM and 30900 nM, respectively. Besides, the selectivity ratio in series [3] turned out to be 16600. For the same compound, the result in the series with Influenza A virus [27] was Active. In addition, in the series with Influenza A virus [32], the inhibition at 0.0008 µM is 21%. Moreover, in the series with Influenza A virus [33], the IC50 turned out to be 1.49 nM.

(Values after ChEMBL document CHEMBL5512674, “Novel Acyl Thiourea-Based Hydrophobic Tagging Degraders Exert Potent Anti-Influenza Activity through Two Distinct Endonuclease Polymerase Acidic-Targeted Degradation Pathways” (J Med Chem, 2024).)
